Results from patent publication US8143263B2, “Therapeutic agents” (Astrazeneca AB, priority 2008, dated 2012).

target: T1, recombinant human pancreatic GLK (Homo sapiens, UniProt P35557); test: biochemical
T1 sequence (P35557 1-465): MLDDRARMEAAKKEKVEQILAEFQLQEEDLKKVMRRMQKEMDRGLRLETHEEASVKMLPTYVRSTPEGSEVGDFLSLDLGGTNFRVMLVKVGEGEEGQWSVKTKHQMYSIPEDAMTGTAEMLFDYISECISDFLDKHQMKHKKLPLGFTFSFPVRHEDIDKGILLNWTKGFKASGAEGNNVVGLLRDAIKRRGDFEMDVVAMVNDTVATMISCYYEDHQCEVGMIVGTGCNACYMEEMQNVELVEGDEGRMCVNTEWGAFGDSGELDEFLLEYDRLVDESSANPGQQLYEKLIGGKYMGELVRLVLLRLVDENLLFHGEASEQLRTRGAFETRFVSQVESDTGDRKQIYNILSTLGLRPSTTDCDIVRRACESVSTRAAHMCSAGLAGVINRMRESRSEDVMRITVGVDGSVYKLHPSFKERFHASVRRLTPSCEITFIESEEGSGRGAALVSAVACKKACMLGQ

| SMILES | EC50 |
| --- | --- |
| O=C(Nc1ccc(F)cn1)[C@H](CCO)Oc1ncnc2c1cnn2-c1ncccc1Cl [Example 143d, (2S)-2-[1-(3-chloro-2-pyridyl)pyrazolo[4,5-e]pyrimidin-4-yl]oxy-N-(5-fluoro-2-pyridyl)-4-hydroxy-butanamide] | 0.59 µM |
| N#Cc1ccc(NC(=O)[C@H](CCO)Oc2ncnc3c2cnn3-c2ncccc2Cl)nc1 [Example 143e, (2S)-2-[1-(3-chloro-2-pyridyl)pyrazolo[4,5-e]pyrimidin-4-yl]oxy-N-(5-cyano-2-pyridyl)-4-hydroxy-butanamide] | 0.53 µM |
| O=C(Nc1ccncn1)[C@H](CCO)Oc1ncnc2c1cnn2-c1ncccc1Cl [Example 143f, (2S)-2-[1-(3-chloro-2-pyridyl)pyrazolo[4,5-e]pyrimidin-4-yl]oxy-4-hydroxy-N-pyrimidin-4-yl-butanamide] | 0.98 µM |
| Cc1ccc(NC(=O)[C@H](COC2CCC2)Oc2ncnc3c2cnn3-c2nccnc2C)nc1 [Example 144, (2S)-3-(cyclobutoxy)-2-[1-(3-methylpyrazin-2-yl)pyrazolo[4,5-e]pyrimidin-4-yl]oxy-N-(5-methyl-2-pyridyl)propanamide] | 0.51 µM |
| Cc1ccc(NC(=O)[C@H](CCO)Oc2ncnc3c2cnn3-c2ccccc2Cl)nc1 [Example 145, (2S)-2-[1-(2-chlorophenyl)pyrazolo[4,5-e]pyrimidin-4-yl]oxy-4-hydroxy-N-(5-methyl-2-pyridyl)butanamide] | 0.23 µM |
| Cc1ccc(NC(=O)[C@H](COC(C)C)Oc2ncnc3c2cnn3-c2cccnc2C)nc1 [Example 146, (2S)-3-isopropoxy-N-(5-methyl-2-pyridyl)-2-[1-(2-methyl-3-pyridyl)pyrazolo[4,5-e]pyrimidin-4-yl]oxy-propanamide] | 0.96 µM |
| CCOC[C@H](Oc1ncnc2c1cnn2-c1ncccc1Cl)C(=O)Nc1ccc(C(=O)N(C)C)cn1 [Example 147, 6-[[(2S)-2-[1-(3-chloro-2-pyridyl)pyrazolo[4,5-e]pyrimidin-4-yl]oxy-3-ethoxy-propanoyl]amino]-N,N-dimethyl-pyridine-3-carboxamide] | 7.8 µM |
| Cc1ccc(NC(=O)[C@H](COC(C)C)Oc2ncnc3c2cnn3-c2cnccc2C)nc1 [Example 148, (2S)-3-isopropoxy-N-(5-methyl-2-pyridyl)-2-[1-(4-methyl-3-pyridyl)pyrazolo[4,5-e]pyrimidin-4-yl]oxy-propanamide] | 0.93 µM |
| Cc1cnc(NC(=O)[C@H](COC2CCC2)Oc2ncnc3c2cnn3-c2cccnc2C)cn1 [Example 149, (2S)-3-cyclobutoxy-N-(5-methylpyrazin-2-yl)-2-(1-(2-methylpyridin-3-yl)-1H-pyrazolo[3,4-d]pyrimidin-4-yloxy)propanamide] | 0.66 µM |
| CCOC[C@H](Oc1ncnc2c1cnn2-c1cccnc1C)C(=O)Nc1ccc(Cl)cn1 [Example 150, (2S)—N-(5-chloropyridin-2-yl)-3-ethoxy-2-(1-(2-methylpyridin-3-yl)-1H-pyrazolo[3,4-d]pyrimidin-4-yloxy)propanamide] | 1 µM |
| COC[C@H](C)OC[C@H](Oc1ncnc2c1cnn2-c1ccccc1Cl)C(=O)Nc1ccc(C)cn1 [Example 152, (2S)-2-(1-(2-chlorophenyl)-1H-pyrazolo[3,4-d]pyrimidin-4-yloxy)-3-((S)-1-methoxypropan-2-yloxy)-N-(5-methylpyridin-2-yl)propanamide] | 0.49 µM |
| COC[C@@H](C)OC[C@H](Oc1ncnc2c1cnn2-c1ccccc1Cl)C(=O)Nc1ccc(C)cn1 [Example 153, (2S)-2-(1-(2-chlorophenyl)-1H-pyrazolo[3,4-d]pyrimidin-4-yloxy)-3-((R)-1-methoxypropan-2-yloxy)-N-(5-methylpyridin-2-yl)propanamide] | 0.28 µM |
| COC[C@@H](C)OC[C@H](Oc1ncnc2c1cnn2-c1ncccc1Cl)C(=O)Nc1ccc(C)cn1 [Example 154, (2S)-2-(1-(3-chloropyridin-2-yl)-1H-pyrazolo[3,4-d]pyrimidin-4-yloxy)-3-((R)-1-methoxypropan-2-yloxy)-N-(5-methylpyridin-2-yl)propanamide] | 1.2 µM |
| COC[C@@H](C)OC[C@H](Oc1ncnc2c1cnn2-c1ccccc1Cl)C(=O)Nc1cnc(C)cn1 [Example 155, (2S)-2-(1-(2-chlorophenyl)-1H-pyrazolo[3,4-d]pyrimidin-4-yloxy)-3-((R)-1-methoxypropan-2-yloxy)-N-(5-methylpyrazin-2-yl)propanamide] | 0.76 µM |
| Cc1cnc(NC(=O)[C@H](COC2CCC2)Oc2ncnc3c2cnn3-c2ccccc2Cl)cn1 [Example 156, (2S)-2-(1-(2-chlorophenyl)-1H-pyrazolo[3,4-d]pyrimidin-4-yloxy)-3-cyclobutoxy-N-(5-methylpyrazin-2-yl)propanamide] | 0.087 µM |
| Cc1cnc(NC(=O)[C@H](COC2CCC2)Oc2ncnc3c2cnn3-c2ncccc2Cl)cn1 [Example 157, (2S)-2-(1-(3-chloropyridin-2-yl)-1H-pyrazolo[3,4-d]pyrimidin-4-yloxy)-3-cyclobutoxy-N-(5-methylpyrazin-2-yl)propanamide] | 0.14 µM |
| Cc1ccc(NC(=O)[C@H](COC2CCC2)Oc2ncnc3c2cnn3-c2ncccc2Cl)nc1 [Example 158, (2S)-2-(1-(3-chloropyridin-2-yl)-1H-pyrazolo[3,4-d]pyrimidin-4-yloxy)-3-cyclobutoxy-N-(5-methylpyridin-2-yl)propanamide] | 0.15 µM |
| CC(=O)OCC[C@H](Oc1ncnc2c1cnn2-c1ncccc1Cl)C(=O)Nc1ccc(C)cn1 [Example 159, [(3S)-3-[1-(3-chloropyridin-2-yl)pyrazolo[4,5-e]pyrimidin-4-yl]oxy-4-[(5-methylpyridin-2-yl)amino]-4-oxobutyl]acetate] | 0.85 µM |
| Cc1ccc(NC(=O)[C@H](COC(C)C)Oc2ncnc3c2cnn3-c2ccccc2C(F)(F)F)nc1 [Example 160, (2S)-3-isopropoxy-N-(5-methylpyridin-2-yl)-2-(1-(2-(trifluoromethyl)phenyl)-1H-pyrazolo[3,4-d]pyrimidin-4-yloxy)propanamide] | 0.28 µM |
| Cc1ccc(NC(=O)[C@H](CCS(C)(=O)=O)Oc2ncnc3c2cnn3-c2ccccc2Cl)nc1 [Example 161, -(2S)-2-(1-(2-chlorophenyl)-1H-pyrazolo[3,4-d]pyrimidin-4-yloxy)-N-(5-methylpyridin-2-yl)-4-(methylsulfonyl)butanamide] | 0.61 µM |
| N#Cc1ccc(NC(=O)[C@H](COCCO)Oc2ncnc3c2cnn3-c2ncccc2Cl)nc1 [Example 162, (2S)-2-(1-(3-chloropyridin-2-yl)-1H-pyrazolo[3,4-d]pyrimidin-4-yloxy)-N-(5-cyanopyridin-2-yl)-3-(2-hydroxyethoxy)propanamide] | 1.5 µM |
| O=C(Nc1ccc(Cl)cn1)[C@H](COCCO)Oc1ncnc2c1cnn2-c1ncccc1Cl [Example 163, (2S)—N-(5-chloropyridin-2-yl)-2-(1-(3-chloropyridin-2-yl)-1H-pyrazolo[3,4-d]pyrimidin-4-yloxy)-3-(2-hydroxyethoxy)propanamide] | 0.58 µM |
| Cc1ccc(NC(=O)[C@H](CCNS(C)(=O)=O)Oc2ncnc3c2cnn3-c2ccccc2Cl)nc1 [Example 164, (2S)-2-(1-(2-chlorophenyl)-1H-pyrazolo[3,4-d]pyrimidin-4-yloxy)-N-(5-methylpyridin-2-yl)-4-(methylsulfonamido)butanamide] | 0.93 µM |
